Results on 21 compounds are retold here after patent publication US9169270B2, “1-phenyl-substituted heterocyclyl derivatives and their use as prostaglandin D2 receptor modulators” (Actelion Pharmaceuticals Ltd., priority 2012, dated 2015).

For orientation: IC50 means the point on the concentration scale where inhibition reaches its midpoint. Higher therefore signals weaker potency in that assay.

hCRTH2 receptor, sequence (Q9Y5Y4 whole entry, the tested form may be a part): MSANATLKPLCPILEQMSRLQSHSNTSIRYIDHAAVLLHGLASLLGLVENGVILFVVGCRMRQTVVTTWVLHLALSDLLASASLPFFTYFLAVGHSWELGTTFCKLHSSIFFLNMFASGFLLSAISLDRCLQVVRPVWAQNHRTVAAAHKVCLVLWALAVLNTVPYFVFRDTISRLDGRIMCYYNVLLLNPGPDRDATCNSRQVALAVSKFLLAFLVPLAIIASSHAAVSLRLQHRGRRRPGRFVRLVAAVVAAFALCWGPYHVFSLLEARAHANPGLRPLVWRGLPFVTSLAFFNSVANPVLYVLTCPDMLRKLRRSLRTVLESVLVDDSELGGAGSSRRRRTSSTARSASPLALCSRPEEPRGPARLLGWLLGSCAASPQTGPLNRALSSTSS

This assay deals with hCRTH2 receptor (Homo sapiens (Human), UniProt Q9Y5Y4). In words: hCRTH2 receptor membranes radioligand (3H-PGD2) displacement assay. Particulars: hCRTH2 membrane fragments, Binding-Buffer with 0.1% BSA. Here is the method:
Biological Assays: Preparation of hCRTH2 Receptor Membranes and Radioligand Displacement Assay:
First, recombinant HEK293-hCRTH2 cells were detached from culture plates into 5 ml buffer A/plate (Buffer A: 5 mM Tris, 1 mM MgCl2-6H2O pH=7.4) using a rubber policeman. Cells were then transferred into centrifugation tubes and centrifuged for 5 min at 400 g. The cell pellet was resuspended in the same buffer and tubes were frozen at −80° C. Cells were thawed and membrane fragments were generated by homogenization using a polytron homogenizer (30 seconds). The membrane fragments were then centrifuged at 3000 g for 20 minutes and resuspended in buffer C (Buffer C: 75 mM Tris, 25 mM MgCl2, 250 mM Saccharose pH 7.4). Aliquots of membrane fragments were stored at −20° C.
Binding assay was performed in a final assay volume of 250 μl. First, 25 μl of test compound, previously diluted in Binding-Buffer (Binding-Buffer: 50 mM Tris-Base, 100 mM NaCl, 1 mM EDTA, 0.1% BSA (protease free), 0.01% NaN3, 10 mM MnCl2, pH 7.0) was placed into each well. […] Binding assay was started by addition of 100 μl CRTH2 membrane fragments, reaching a final concentration of 20 μg/well. For non-specific binding, PGD2 was added to the reaction mixture to […] final concentration. This assay mix was incubated for 90 minutes at room temperature and then filtered through a GF/C filter 96-well plate which was pre-soaked for 3 hours in 0.5% polyethyleneimine (PEI). The filter-wells were washed three times with ice cold Binding-Buffer. Then, 40 μl of Microscint-40 (Packard) was added to each well and the retained radioactivity quantified in a Topcount (Packard).
In turn, `CC(C)COC(=O)N1CCc2ncsc2C1c1cc(Cl)ccc1OCC(=O)O` (racemic) [Example 98, (±)-4-(2-Carboxymethoxy-5-chloro-phenyl)-6,7-dihydro-4H-thiazolo[5,4-c]pyridine-5-carboxylic acid isobutyl ester] registered an IC50 of 17.8 nM.

With `CCCCOC(=O)N1CCc2ncsc2C1c1cc(Cl)ccc1OCC(=O)O` (racemic) [Example 99, (±)-4-(2-Carboxymethoxy-5-chloro-phenyl)-6,7-dihydro-4H-thiazolo[5,4-c]pyridine-5-carboxylic acid butyl ester], the half-inhibitory concentration (IC50) was 11.8 nM.

In turn, `Cc1ccc(COC(=O)N2CCc3ncsc3C2c2cc(Cl)ccc2OCC(=O)O)c(C)c1` (racemic) [Example 100, (±)-4-(2-Carboxymethoxy-5-chloro-phenyl)-6,7-dihydro-4H-thiazolo[5,4-c]pyridine-5-carboxylic acid 2,4-dimethyl-benzyl ester] returned a 50% inhibitory concentration (IC50) of 7.1 nM.

Compound `Cc1cccc(COC(=O)N2CCc3ncsc3C2c2cc(Cl)ccc2OCC(=O)O)c1C` (racemic) [Example 101, (±)-4-(2-Carboxymethoxy-5-chloro-phenyl)-6,7-dihydro-4H-thiazolo[5,4-c]pyridine-5-carboxylic acid 2,3-dimethyl-benzyl ester] returned a half-maximal inhibitory concentration (IC50) of 6.1 nM.

In turn, `N#Cc1ccc(OCC(=O)O)c(C2c3scnc3CCN2C(=O)OCc2ccccc2)c1` (racemic) [Example 106, (±)-4-(2-Carboxymethoxy-5-cyano-phenyl)-6,7-dihydro-4H-thiazolo[5,4-c]pyridine-5-carboxylic acid benzyl ester] displayed an IC50 of 3.4 nM.

`O=C(O)COc1ccc(Cl)cc1C1c2scnc2CCN1C(=O)NCCc1ccccc1` (racemic) [Example 107, (±)-[4-Chloro-2-(5-phenethylcarbamoyl-4,5,6,7-tetrahydro-thiazolo[5,4-c]pyridin-4-yl)-phenoxy]-acetic acid] showed an IC50 of 5.7 nM.

As to `O=C(O)COc1ccc(Cl)cc1C1c2scnc2CCN1C(=O)NCc1ccccc1Cl` (racemic) [Example 108, (±)-{4-Chloro-2-[5-(2-chloro-benzylcarbamoyl)-4,5,6,7-tetrahydro-thiazolo[5,4-c]pyridin-4-yl]-phenoxy}-acetic acid], the half-maximal inhibitory concentration (IC50) was 8.9 nM. This IC50 lies about 1.6-fold higher than the previous one.

For the compound `CCCc1nc2c(s1)C(c1cc(Cl)ccc1OCC(=O)O)N(C(=O)OCc1ccccc1)CC2` (racemic) [Example 111, (±)-4-(2-Carboxymethoxy-5-chloro-phenyl)-2-propyl-6,7-dihydro-4H-thiazolo[5,4-c]pyridine-5-carboxylic acid benzyl ester], the IC50 amounted to 86.4 nM. This IC50 lies about 9.7-fold higher than the previous one.

Compound `O=C(O)COc1ccc(Cl)cc1C1c2sc(-c3ccccc3)nc2CCN1C(=O)OCc1ccccc1` (racemic) [Example 112, (±)-4-(2-Carboxymethoxy-5-chloro-phenyl)-2-phenyl-6,7-dihydro-4H-thiazolo[5,4-c]pyridine-5-carboxylic acid benzyl ester] showed a half-maximal inhibitory concentration (IC50) of 30.9 nM.

As to `CS(=O)(=O)Nc1nc2c(s1)C(c1cc(Cl)ccc1OCC(=O)O)N(C(=O)OCc1ccccc1)CC2` (racemic) [Example 113, (±)-4-(2-Carboxymethoxy-5-chloro-phenyl)-2-methanesulfonylamino-6,7-dihydro-4H-thiazolo[5,4-c]pyridine-5-carboxylic acid benzyl ester], the IC50 amounted to 254 nM. Compared with the last compound, the IC50 is about 8.2-fold higher.

With `O=C(O)COc1ccc(Cl)cc1C1c2sc(NS(=O)(=O)C3CC3)nc2CCN1C(=O)OCc1ccccc1` (racemic) [Example 114, (±)-4-(2-Carboxymethoxy-5-chloro-phenyl)-2-cyclopropanesulfonylamino-6,7-dihydro-4H-thiazolo[5,4-c]pyridine-5-carboxylic acid benzyl ester], the IC50 was determined as 678 nM. This IC50 lies about 2.7-fold higher than the previous one.

With `O=C(O)COc1ccc(Cl)cc1C1c2sc(NC(=O)C3CC3)nc2CCN1C(=O)OCc1ccccc1` (racemic) [Example 115, (±)-4-(2-Carboxymethoxy-5-chloro-phenyl)-2-(cyclopropanecarbonyl-amino)-6,7-dihydro-4H-thiazolo[5,4-c]pyridine-5-carboxylic acid benzyl ester], the IC50 amounted to 491 nM.

Compound `CC(=O)Nc1nc2c(s1)C(c1cc(Cl)ccc1OCC(=O)O)N(C(=O)OCc1ccccc1)CC2` (racemic) [Example 116, (±)-2-Acetylamino-4-(2-carboxymethoxy-5-chloro-phenyl)-6,7-dihydro-4H-thiazolo[5,4-c]pyridine-5-carboxylic acid benzyl ester] came in with a half-inhibitory concentration (IC50) of 857 nM.

In turn, `O=C(O)COc1ccc(F)cc1C1c2scnc2CCN1C(=O)OCc1ccccc1` (racemic) [Example 118, (±)-4-(2-Carboxymethoxy-5-fluoro-phenyl)-6,7-dihydro-4H-thiazolo[5,4-c]pyridine-5-carboxylic acid benzyl ester] had an IC50 of 8.3 nM.

`C[C@@H](Oc1ccc(Cl)cc1C1c2scnc2CCN1C(=O)OCc1ccccc1)C(=O)O` (mixture of isomers) [Example 119, (±)-4-[2-((R)-1-Carboxy-ethoxy)-5-chloro-phenyl]-6,7-dihydro-4H-thiazolo[5,4-c]pyridine-5-carboxylic acid benzyl ester] displayed an IC50 of 18.5 nM.

On to `C[C@H](Oc1ccc(Cl)cc1C1c2scnc2CCN1C(=O)OCc1ccccc1)C(=O)O` (mixture of isomers) [Example 120, (±)-4-[2-((S)-1-Carboxy-ethoxy)-5-chloro-phenyl]-6,7-dihydro-4H-thiazolo[5,4-c]pyridine-5-carboxylic acid benzyl ester], for which the half-inhibitory concentration (IC50) was found to be 64.4 nM.

`O=C(O)COc1ccc(Cl)cc1[C@@H]1c2scnc2CCN1C(=O)[C@@H]1C[C@H]1c1cccc(F)c1` [Example 7, (4-Chloro-2-{(R)-5-[(1R,2R)-2-(3-fluoro-phenyl)-cyclopropanecarbonyl]-4,5,6,7-tetrahydro-thiazolo[5,4-c]pyridin-4-yl}-phenoxy)-acetic acid] returned an IC50 of 2.8 nM.

As for `O=C(O)COc1ccc(Cl)cc1[C@@H]1c2scnc2CCN1C(=O)[C@@H]1C[C@H]1c1ccc(F)cc1` [Example 8, (4-Chloro-2-{(R)-5-[(1R,2R)-2-(4-fluoro-phenyl)-cyclopropanecarbonyl]-4,5,6,7-tetrahydro-thiazolo[5,4-c]pyridin-4-yl}-phenoxy)-acetic acid], the 50% inhibitory concentration (IC50) stood at 5 nM.

Regarding `O=C(O)COc1ccc(Cl)cc1[C@@H]1c2scnc2CCN1C(=O)[C@H]1C[C@@H]1c1ccc(F)cc1` [Example 9, (4-Chloro-2-{(R)-5-[(1S,2S)-2-(4-fluoro-phenyl)-cyclopropanecarbonyl]-4,5,6,7-tetrahydro-thiazolo[5,4-c]pyridin-4-yl}-phenoxy)-acetic acid], the half-maximal inhibitory concentration (IC50) is 462 nM.

`Cc1nc2c(s1)[C@@H](c1cc(Cl)ccc1OCC(=O)O)N(C(=O)[C@@H]1C[C@H]1c1ccccc1)CC2` [Example 10, {4-Chloro-2-[(R)-2-methyl-5-((1R,2R)-2-phenyl-cyclopropanecarbonyl)-4,5,6,7-tetrahydro-thiazolo[5,4-c]pyridin-4-yl]-phenoxy}-acetic acid] yielded a half-maximal inhibitory concentration (IC50) of 1.5 nM.

`Cc1nc2c(s1)[C@H](c1cc(Cl)ccc1OCC(=O)O)N(C(=O)[C@@H]1C[C@H]1c1ccccc1)CC2` [Example 11, {4-Chloro-2-[(S)-2-methyl-5-((1R,2R)-2-phenyl-cyclopropanecarbonyl)-4,5,6,7-tetrahydro-thiazolo[5,4-c]pyridin-4-yl]-phenoxy}-acetic acid]: the IC50 was determined as 570 nM. Against the preceding compound, the IC50 is about 380-fold higher.
